These results are taken from US20250002695A1, “COMPOSITIONS COMPRISING CATIONIC ALPHA-1,6-GLUCAN DERIVATIVE AND ALPHA-1,3-GLUCAN” (Nutrition & Biosciences USA 4, Inc., priority 2021, published 2025).

What all share (experiment): Minimum Inhibitory Concentration (MIC) test
Assay type in all cases: cell-based

The test system of test [1] is Aspergillus brasiliensis (ATCC 16404). The settings on record: ATCC16404, 168 h, read-out: Minimum Inhibitory Concentration. On the procedure:
(§1) Antimicrobial activity assessment of alpha-1,6-glucan ether compounds herein and other compounds were carried out using a standard MIC protocol. Each test compound was evaluated in two sets, one at 50-5000 ppm (high MIC actives) and the other at 3.125-100 ppm (low MIC actives). All active samples, with the exception of chitosan, were dissolved in DI water at a concentration of 1% w/v for the […] set; chitosan was instead dissolved in water acidified to pH 3.5 with hydrochloric acid. Each test compound was then serially diluted to concentrations of 0.4%, 0.2%, 0.1%, 0.04%, 0.02% and 0.01% (w/v). For the 3.125-100 ppm set, all test compounds were prepared similarly at a concentration 0.1% w/v, and then serially diluted to concentrations of 0.05%, 0.025%, 0.0125%, 0.00625% and 0.003125% (w/v). Bacteria inocula were prepared by diluting overnight cultures 1:20 in trypticase soy broth media (TSB). Yeast and mold were prepared by diluting overnight culture or monthly stock (1×10^8 cells per mL) 1:20 in potato dextrose broth media (PDB). 96-well plates were used in this test. First, 180 μL of plating media was added to each well. Next, each well received 20 μL water (control) or test compound at a specified concentration according to concentration range to be tested. Each sample was tested in triplicate. Lastly, each well received 20 μL of bacteria or fungi inoculum. Bacterial plates were incubated at 30° C. for 24 hours. Yeast and mold plates were incubated at 25° C.; yeast plates were incubated for 24 hours and mold plates were incubated for 7 days.

Test [2] has as its system Burkholderia cepacia (ATCC 25416). To be noted: read-out: Minimum Inhibitory Concentration. How it is done:
as §1

Test [3] has as its system Candida albicans (ATCC 10231). The settings on record: read-out: Minimum Inhibitory Concentration. On the procedure:
as §1

Test [4] has as its system Enterobacter gergoviae (ATCC 33028). The settings on record: Pluralibacter gergoviae, read-out: Minimum Inhibitory Concentration. How it is done:
as §1

For test [5], the system named is Escherichia coli (ATCC 8739). To be noted: read-out: Minimum Inhibitory Concentration. How it is done: as §1
The subject of test [6] is Klebsiella pneumoniae (ATCC 13883). To be noted: read-out: Minimum Inhibitory Concentration. On the procedure:
as §1

Test [7] relates to Pseudomonas aeruginosa (ATCC 15442). The settings on record: read-out: Minimum Inhibitory Concentration. How it is done: as §1
Test [8] deals with Pseudomonas aeruginosa (ATCC 9027). The settings on record: read-out: Minimum Inhibitory Concentration. On the procedure: as §1
Test [9] deals with Pseudomonas putida (ATCC 49128). The settings on record: read-out: Minimum Inhibitory Concentration. How it is done:
as §1

Test [10] deals with Staphylococcus aureus (ATCC 6538). To be noted: read-out: Minimum Inhibitory Concentration. On the procedure: as §1
The test system of test [11] is Staphylococcus epidermidis (ATCC 12228). The settings on record: read-out: Minimum Inhibitory Concentration. How it is done:
as §1

Structures are written as SMILES. ≈ marks a conversion by molar mass, not a printed value. Where two headings read alike, the source gives them in different places.

As to `CCCCCCCCCCCC[N+](C)(C)C.[Cl-]` [Comp. 11, Dodecyltrimethylammonium chloride], the MIC in [1] was 1000 µg/mL; in [2] (ATCC25416, 24 h), 1000 µg/mL; in test [3] (ATCC10231, 24 h), 200 µg/mL; in test [4] (ATCC33028, 24 h), 500 µg/mL; in test [5] (ATCC8739, 24 h), 200 µg/mL; in test [6] (ATCC13883, 24 h), 500 µg/mL. Moreover, the MIC in [7] (ATCC15442, 24 h) is 500 µg/mL; in [8] (ATCC9027, 24 h) it was 500 µg/mL; in test [9] (ATCC49128, 24 h), 500 µg/mL; in test [10] (ATCC6538, 24 h), 200 µg/mL; in test [11] (ATCC12228, 24 h), 100 µg/mL.
On to `CCCCCCCCCCCC(=O)N[C@@H](CCCNC(=N)N)C(=O)OCC` [Comp. 13, Lauroyl arginine ethyl ester], for which the MIC was 100 µg/mL (≈ 260 µM) in test [1] (A. brasiliensis ATCC 16404, 25° C., 7 days); 100 µg/mL (≈ 260 µM) in test [2] (ATCC25416, B. cepacia ATCC 25416, 30° C., 24 hours); 100 µg/mL (≈ 260 µM) in [3] (ATCC10231, C. albicans ATCC 10231, 25° C., 24 hours); 100 µg/mL (≈ 260 µM) in test [4] (ATCC33028, E. gergoviae ATCC 33028, 30° C., 24 hours); 50 µg/mL (≈ 130 µM) in test [5] (ATCC8739, E. coli ATCC 8739, 30° C., 24 hours); 50 µg/mL (≈ 130 µM) in test [6] (ATCC13883, K. pneumoniae ATCC 13883, 30° C., 24 hours). The MIC turned out to be 50 µg/mL (≈ 130 µM) in test [7] (ATCC15442, P. aeruginosa ATCC 15442, 30° C., 24 hours); 50 µg/mL (≈ 130 µM) in test [8] (ATCC9027, P. aeruginosa ATCC 9027, 30° C., 24 hours); 25 µg/mL (≈ 65 µM) in [9] (ATCC49128, P. putida ATCC 49128, 30° C., 24 hours); 12.5 µg/mL (≈ 32.5 µM) in test [10] (ATCC6538, S. aureus ATCC 6538, 30° C., 24 hours); 12.5 µg/mL (≈ 32.5 µM) in test [11] (ATCC12228, S. epidermidis ATCC 12228, 30° C., 24 hours).
